Experimental data reported in publication PMC8391988 (2021).

Columns and labels:
[1] = tested on: poly dAdT–poly dAdT (DNA, polymer) AT; experiment: UV thermal melting at 260 nm; conditions: Na+ (sodium cacodylate, I = 0.05 M); pH 7.0; r = [compound]/[phosphate] = 0.2; polynucleotide 1–2 × 10^-5 M; per base
[2] = tested on: poly dG–poly dC (DNA, polymer) G/C; experiment: fluorimetric titration, Scatchard; conditions: Na+ (sodium cacodylate, I = 0.05 M); pH 7.0; apparent; per phosphate; n fixed at 0.2; dye 1.3–1.5 × 10^-7 M; per base
[3] = tested on: poly dGdC–poly dGdC (DNA, polymer) GC; experiment: fluorimetric titration, Scatchard; conditions: Na+ (sodium cacodylate, I = 0.05 M); pH 7.0; apparent; per phosphate; n fixed at 0.2; dye 1.3–1.5 × 10^-7 M; per base
[4] = tested on: poly rA–poly rU (RNA, polymer) A/U; experiment: fluorimetric titration, Scatchard; conditions: Na+ (sodium cacodylate, I = 0.05 M); pH 7.0; apparent; per phosphate; n fixed at 0.2; dye 1.3–1.5 × 10^-7 M; per base
[5] = tested on: poly dA–poly dT (DNA, polymer) A/T; experiment: fluorimetric titration, Scatchard; conditions: Na+ (sodium cacodylate, I = 0.05 M); pH 7.0; apparent; per phosphate; n fixed at 0.2; dye 1.3–1.5 × 10^-7 M; per base
[6] = tested on: poly dAdT–poly dAdT (DNA, polymer) AT; experiment: fluorimetric titration, Scatchard; conditions: Na+ (sodium cacodylate, I = 0.05 M); pH 7.0; apparent; per phosphate; n fixed at 0.2; dye 1.3–1.5 × 10^-7 M; per base
[7] = tested on: poly rG–poly rC (RNA, polymer) G/C; experiment: fluorimetric titration, Scatchard; conditions: Na+ (sodium cacodylate, I = 0.05 M); pH 7.0; apparent; per phosphate; n fixed at 0.2; dye 1.3–1.5 × 10^-7 M; per base
[8] = tested on: poly rA–poly rU (RNA, polymer) A/U; experiment: UV thermal melting at 260 nm; conditions: Na+ (sodium cacodylate, I = 0.05 M), pH 7.0, polynucleotide 1–2 × 10^-5 M, per base
[9] = r = [compound]/[phosphate] = 0.2

Row | Compound | ΔTm [1] | log Ks [2] | log Ks [3] | log Ks [4] | log Ks [5] | log Ks [6] | log Ks [7] | ΔTm [8, 9] | ΔTm ([8]; r = 0.1, destabilised (−19.1) at r = 0.2)
1 | CC(O)C[n+]1c(C=C2C=CN(CCC[N+]3(C)CCC(CCCC4CC[N+](C)(CCCN5C=CC(=Cc6sc7ccccc7[n+]6CC(C)O)c6ccccc65)CC4)CC3)c3ccccc32)sc2ccccc21 (stereo not drawn) | 10.7 °C | 6.63 | 7.20 | 6.14 | 5.89 | 6.98 | 4.79 | 0 °C | 
2 | CC(O)C[n+]1c(C=C2C=CN(CCC[N+]3(C)CCC(CCCC4CC[N+](C)(CCCN5C=CC(=Cc6sc7ccccc7[n+]6CC(C)O)c6ccc(Cl)cc65)CC4)CC3)c3cc(Cl)ccc32)sc2ccccc21 (stereo not drawn) | 7.1 °C | 7.41 | 7.40 | 6.14 | 5.91 | 6.05 | 4.95 | 0.6 °C | 
3 | CC(O)C[n+]1c(C=C2C=CN(CCC[N+](C)(C)CCC[N+](C)(C)C)c3ccccc32)sc2ccccc21 (stereo not drawn) | 28.6 °C | 6.79 | 6.98 | 6.11 | 6.41 | 6.65 | 5.23 | 24.0 °C | 
4 | CC(O)C[n+]1c(C=C2C=CN(CCC[N+](C)(C)CCC[N+](C)(C)CCCN3C=CC(=Cc4sc5ccccc5[n+]4CC(C)O)c4ccccc43)c3ccccc32)sc2ccccc21 (stereo not drawn) | 8.9 °C | 7.55 | 7.64 | 7.15 | 6.19 | 7.23 | 4.94 | 3.0 °C | 
5 | CC(O)C[n+]1c(C=C2C=CN(CCC[n+]3ccc(CCCc4cc[n+](CCCN5C=CC(=Cc6sc7ccccc7[n+]6CC(C)O)c6ccccc65)cc4)cc3)c3ccccc32)sc2ccccc21 (stereo not drawn) |  | 6.78 | 7.04 | 6.22 | 6.23 | 6.68 | 4.76 |  | 10.6 °C
